# Measured values reported in patent US12678518B2, “Theranostic probe and its use for targeting and/or labeling the EGFR kinase and/or the cells expressing EGFR or its family members” (Tianjin University, priority 2019, dated 2026).
# What was measured:
# EGFR = EGFR (Homo sapiens, UniProt P00533); experiment: Inhibition of the EGF receptor kinase activity (EGFR phosphorylation, western blotting); settings: EGFR-transfected HEK293T cells, 10 minutes
# Method: Inhibition of the EGF receptor kinase activity. […] Treated cells were lysed by mixing with 40 μl/well lysis buffer (50 mM Tris, pH 7.5, 150 mM NaCl, 1% TritonX-100, 1% sodium deoxycholate, 0.1% SDS, 10 mM EDTA, 1 mM Na3VO4, 2 mM PMSF). […] The supernatants were mixed with 6×SDS sample buffer, and were subjected to SDS-PAGE and Western blotting analysis. The expression and phosphorylation levels of EGFR were detected by 4G10 and anti-Protein C antibodies, respectively, in western blotting.
# In the assay, EGFR-transfected HEK293T cells were treated with the PDCy3 probe at different concentrations for 10 minutes in the presence and absence of 10 nM EGF. The expression and phosphorylation levels of the EGF receptor were detected and analyzed by western blotting.
# Inhibition of the EGF receptor kinase activity. […] Treated cells were lysed by mixing with 40 μL/well lysis buffer (50 mM Tris, pH 7.5, 150 mM NaCl, 1% Triton X-100, 1% sodium deoxycholate, 0.1% SDS, 10 mM EDTA, 1 mM Na3VO4, 2 mM PMSF). […] The expression and phosphorylation levels of EGFR were detected by 4G10 and anti-Protein C antibodies, respectively, in western blotting.
# In the assay, EGFR-transfected HEK293T cells were treated with PDCy3 at different concentrations for 10 minutes in the presence or absence of 10 nM EGF. The expression and phosphorylation levels of EGFR were detected and analyzed by western blotting.
# EGFR dimers (wild type) = target: T1, EGFR dimers (wild type) (Homo sapiens, UniProt P00533); experiment: Protein complementary assay (split YFP), PDCy3 binding to EGFR dimers, wild type; assay type: cell-based; settings: wild type receptor pair, 1 μM PDCy3
# T1 construct: one encoding human EGFR(1-998) fused with a split YFP-N(1-172) fragment; the other encoding hEGFR(1-998) linked to a split YFP-C(155-238) fragment; expressed in transfected cells; host or cells: HEK 293T
# Description: (§1) Protein complementary assay. For protein complementary assay, we designed two complementary constructs: one encoding human EGFR(1-998) fused with a split YFP-N(1-172) fragment, and the other encoding hEGFR(1-998) linked to a split YFP-C(155-238) fragment. Kinase mutations were introduced on both constructs to make a complementary pair. All the constructs were verified by sequencing. The paired constructs encoding the same receptor were co-transfected into HEK 293T cells. Transfected cells were starved in EX-Cell 293 Serum-Free Medium for 44 hours before treatment with 1 μM PDCy3 for additional 4 hours. The dimerization of the EGF receptors and the binding of dimerized receptors to PDCy3 were analyzed by flowcytometry.
# (§2) To further investigate how EGFR kinase dimerization affects PDCy3 binding, we did a protein complementary assay. In the assay, split YFP fragments were individually fused to the C-terminus of the full length EGFR, and EGF kinase dimerization was reported by the fluorescence of assembled YPF from co-transfected receptors (FIG. 4A)^23. As shown in the FIG. 4B, the cells with co-expressed EGFR dimers could be divided into two populations. In one population, the quantity of bound PDCy3 increased linearly as a function of the expression levels of EGFR dimers (FIG. 4C). But in the other population, the quantity of bound PDCy3 was independent of the expressed EGFR dimers. […]
# EGFR V924R = target: T2, EGFR V924R (Homo sapiens, UniProt P00533, V948R); experiment: Flowcytometry of PDCy3 binding to cells expressing EGFR V924R mutant; assay type: cell-based; settings: 1 μM PDCy3
# T2 construct: plasmids encoding human EGFR (1-988) and split YFP fragments; expressed in transfected cells; host or cells: HEK 293T
# Method: Cell sorting. Following starvation in EX-Cell 293 Serum-Free Medium for 44 hours, transfected cells were treated with gefitinib, PDCy3, or EGF for 4 hours at 37° C. Then, the cells were washed twice with 500 μl/well ice-cold PBS, and were re-suspended in 400 μl/well PBS. The final cell density was estimated to be 5×10^5˜1×10^6 cells/ml. To detect EGFR expression, 3 μd anti-EGFR 528 antibody (santa cruz biotechnology inc, USA) at 200 μg/ml concentration was added to each well of re-suspended cells. After 30-minute incubation on ice, cells were washed twice with 500 μl/well PBS, and were re-suspended in […]. Then, 0.3 μl FITC-labelled secondary antibody at a concentration of 2 mg/ml was added to each sample. After incubation on ice for 30 minutes, cells were washed three times with PBS, re-suspended in 400 μl/well PBS, and analyzed by flowcytometry using a BD FACS Calibur machine.
# Cell sorting. Following starvation in EX-Cell 293 Serum-Free Medium for 44 hours, transfected cells were treated with gefitinib, PDCy3, or EGF for 4 hours at 37° C. Then, the cells were washed twice with 500 μL/well ice-cold PBS, and were re-suspended in 400 μL/well PBS. The final cell density was estimated to be 5×10^5˜1×10^6 cells/mL. […] After incubation on ice for 30 minutes, cells were washed three times with PBS, re-suspended in 400 μL/well PBS, and analyzed by floweytometry using a BD FACS Calibur machine.
# EGFR dimers (L834R) = target: T3, EGFR dimers (L834R) (Homo sapiens, UniProt P00533, L858R); experiment: Protein complementary assay (split YFP), PDCy3 binding to EGFR dimers, L834R; assay type: cell-based
# T3 construct: one encoding human EGFR(1-998) fused with a split YFP-N(1-172) fragment; the other encoding hEGFR(1-998) linked to a split YFP-C(155-238) fragment; expressed in transfected cells; host or cells: HEK 293T
# Description: as §1, §2
compound,measurement,setting,value
"CN1/C(=C/C=C/C2=[N+](CCCCCC(=O)NCCC/C=C/C(=O)Nc3ccc4ncnc(Nc5cccc(Br)c5)c4c3)c3ccc(S(=O)(=O)O)cc3C2(C)C)C(C)(C)c2cc(S(=O)(=O)[O-])ccc21 [PDCy3, 1-(6-((E)-6-(4-(3-bromophenylamino)quinazolin-6-ylamino)-6-oxohex-4-enylamino)-6-oxohexyl)-3,3-dimethyl-2-((1E,3E)-3-(1,3,3-trimethyl-5-sulfonatoindolin-2-ylidene)prop-1-enyl)-3H-indolium-5-sulfonate]",concentration at which EGFR kinase activity was completely inhibited,"EGFR; presence and absence of 10 nM EGF, western blotting",20 µM
same,inhibition of EGFR kinase activity (in words),EGFR; different concentrations,inhibit the kinase activity of EGFR in a dose dependent manner
same,fraction of the population with the higher sensitivity to PDCy3 (population A),EGFR dimers (wild type),38.4%
same,enhancement of PDCy3 binding (fraction of PDCy3-bound cells) by V924R mutation,EGFR V924R,8%
same,fraction of the population with the higher sensitivity to PDCy3 (population A),"EGFR dimers (L834R); L834R receptor pair, 1 μM PDCy3",27.4%
same,sensitivity of population A versus population B in response to PDCy3 binding,EGFR dimers (L834R); L858R (so in the source) mutant dimers,5 times
